# Assay results reported in US11066369B2, “N-(pyridin-2-yl)pyridine-sulfonamide derivatives and their use in the treatment of disease” (Novartis AG, priority 2016, dated 2021).
# pEC50: −log10 of the molar value. Structures can show the parent of a compound that is named as a salt.
# Tests used:
# delF508-CFTR = target: T1, delF508-CFTR (Homo sapiens, UniProt P13569, DEL508-508); assay: Measurement of delF508-CFTR functional activity in primary human bronchial epithelial cells (HBECs) using Multi-Transepithelial Clamp Circuit (MTECC-24) assay; format: cell-based; settings: primary CF HBECs; for MTECC24 CFHBEC- Amax %: test compound added 24h before assay plus potentiator, relative to reference combination (2 μM corrector + 0.5 μM potentiator); for pEC50: test compound added 24h before assay, in the presence of potentiator, mean of at least two replicates, read-out: MTECC24 CFHBEC- EC50
# T1 construct: functional activity of the CFTR channel (Chloride ion transport) in patient derived primary human bronchial epithelial cells; host or cells: patient-derived primary human bronchial epithelial cells (delF508-CFTR)
# How it was run: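 Compound tested as 10-point, 1-in-3 concentration response (0.1% or 0.2% DMSO), 24 h basolateral pre-incubation, then re-added to both sides. MTECC-24 measured Ieq in ALI-differentiated primary delF508 bronchial cells after amiloride, forskolin activation, potentiator and INH-172 block; data normalized to DMSO baseline, EC50 fitted.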
# [1] = target: T2, horseradish peroxidase (HRP) tagged delF508-CFTR (Homo sapiens, UniProt P13569, DEL508-508); assay: Measurement of delF508-CFTR-HRP surface expression in CFBE41o- cells; format: cell-based; settings: delF508-CFTR-HRP surface expression, CFBE41o- cells; for Emax: read-out: DelF508-CFTR-HRP Amax %; for pEC50: read-out: DelF508-CFTR-HRP EC50;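 for DelF508-CFTR-HRP Amax %: percent efficacy relative to reference corrector lumacaftor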
# T2 construct: expressed in transfected cells
# How it was run: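 Surface-trafficked delF508-CFTR detected via extracellular HRP tag, read as luminescence from a membrane-impermeant substrate in CFBE41o- cells. Cells pre-induced 48h with 500 ng/mL doxycycline, then exposed 24h at 37° C to a 10-point, 3-fold dilution series from 10 μM (DMSO ≤0.5%). Triplicate dose-responses fitted logistically for EC50 after per-plate normalization; fold change versus reference compound.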
# T2 sequence (P13569 with tags, fused parts or gaps DEL508-508): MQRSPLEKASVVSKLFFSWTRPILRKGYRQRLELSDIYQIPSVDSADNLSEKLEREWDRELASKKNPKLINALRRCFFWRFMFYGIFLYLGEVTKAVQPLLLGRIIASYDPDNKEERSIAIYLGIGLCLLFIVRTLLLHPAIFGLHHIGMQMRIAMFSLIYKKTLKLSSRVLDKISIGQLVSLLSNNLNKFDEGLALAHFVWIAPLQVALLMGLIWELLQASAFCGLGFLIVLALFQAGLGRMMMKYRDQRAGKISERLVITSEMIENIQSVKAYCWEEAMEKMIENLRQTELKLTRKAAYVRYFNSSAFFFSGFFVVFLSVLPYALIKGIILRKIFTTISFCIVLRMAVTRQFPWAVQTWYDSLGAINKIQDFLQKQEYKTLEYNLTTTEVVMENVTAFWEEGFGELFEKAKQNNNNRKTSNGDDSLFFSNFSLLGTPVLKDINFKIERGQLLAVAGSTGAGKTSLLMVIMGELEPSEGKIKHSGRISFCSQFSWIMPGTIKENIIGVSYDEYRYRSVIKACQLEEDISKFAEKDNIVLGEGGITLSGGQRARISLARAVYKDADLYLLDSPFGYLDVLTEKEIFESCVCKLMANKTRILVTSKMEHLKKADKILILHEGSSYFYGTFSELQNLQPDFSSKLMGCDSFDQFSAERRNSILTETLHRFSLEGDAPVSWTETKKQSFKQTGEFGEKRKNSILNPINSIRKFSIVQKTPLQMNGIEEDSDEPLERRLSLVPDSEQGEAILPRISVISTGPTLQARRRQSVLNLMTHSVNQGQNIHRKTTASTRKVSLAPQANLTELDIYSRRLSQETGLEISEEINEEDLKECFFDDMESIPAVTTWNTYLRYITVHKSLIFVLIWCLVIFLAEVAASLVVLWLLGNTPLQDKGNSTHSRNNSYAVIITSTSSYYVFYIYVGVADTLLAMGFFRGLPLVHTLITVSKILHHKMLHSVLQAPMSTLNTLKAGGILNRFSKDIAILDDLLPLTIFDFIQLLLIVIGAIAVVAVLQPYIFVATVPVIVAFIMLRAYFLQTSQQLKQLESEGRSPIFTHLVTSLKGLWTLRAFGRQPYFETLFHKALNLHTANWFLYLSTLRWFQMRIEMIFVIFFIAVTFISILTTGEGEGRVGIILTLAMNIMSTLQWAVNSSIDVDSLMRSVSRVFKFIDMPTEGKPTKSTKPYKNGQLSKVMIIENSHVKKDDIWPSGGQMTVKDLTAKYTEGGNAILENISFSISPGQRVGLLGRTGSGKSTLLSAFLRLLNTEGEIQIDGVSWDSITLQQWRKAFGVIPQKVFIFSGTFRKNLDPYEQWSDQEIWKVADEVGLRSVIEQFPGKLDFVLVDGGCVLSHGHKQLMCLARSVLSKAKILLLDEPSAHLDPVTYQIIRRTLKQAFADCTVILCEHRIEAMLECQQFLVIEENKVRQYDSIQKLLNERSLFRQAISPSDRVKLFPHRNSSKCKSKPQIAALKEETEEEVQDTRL
# T1 sequence (P13569 with tags, fused parts or gaps DEL508-508): as above
MTECC24 CFHBEC- Amax % (delF508-CFTR) [%],pEC50 (delF508-CFTR),Emax [1] [%],pEC50 [1],SMILES
61.2,8.49,894,5.84,"CCOC(=O)C1(C)CCN(c2cccc(S(=O)(=O)Nc3ccc(C(F)(F)F)c(-c4cc(F)ccc4C)n3)n2)CC1 [Example 251, ethyl 1-(6-(N-(6-(5-fluoro-2-methylphenyl)-5-(trifluoromethyl)pyridin-2-yl)sulfamoyl)pyridin-2-yl)-4-methylpiperidine-4-carboxylate]"
71.4,7.33,616,5.84,"Cc1cccc(C)c1-c1nc(NS(=O)(=O)c2cccc(O[C@@H]3COC[C@@H]3O)n2)ccc1Cl (racemic) [Example 290, rac-N-[5-chloro-6-(2,6-dimethylphenyl)pyridin-2-yl]-6-{[(3R,4S)-4-hydroxyoxolan-3-yl]oxy}pyridine-2-sulfonamide]"
66.7,8.72,801,5.81,"CCOC(=O)C1(C)CCN(c2cccc(S(=O)(=O)Nc3ccc(C(F)(F)F)c(-c4ccccc4C)n3)n2)CC1 [Example 259, ethyl 4-methyl-1-(6-{[6-(2-methylphenyl)-5-(trifluoromethyl)pyridin-2-yl]sulfamoyl}pyridin-2-yl)piperidine-4-carboxylate]"
72.9,6.93,285,5.97,"Cc1ccccc1-c1nc(NS(=O)(=O)c2ccnc(N)c2)ccc1Cl [Example 57, 2-amino-N-(5-chloro-6-(o-tolyl)pyridin-2-yl)pyridine-4-sulfonamide]"
100.1,7.62,536,5.88,"Cc1cccc(Cl)c1-c1nc(NS(=O)(=O)c2cccc(N)n2)ccc1Cl [Example 13, 6-amino-N-(5-chloro-6-(2-chloro-6-methylphenyl)pyridin-2-yl)pyridine-2-sulfonamide]"
57.1,6.68,515,5.58,"Cc1ccc(F)cc1-c1nc(NS(=O)(=O)c2cccc(N3CCN[C@@H](CO)C3)n2)ccc1C(F)(F)F [Example 174, (R)—N-(6-(5-fluoro-2-methylphenyl)-5-(trifluoromethyl)pyridin-2-yl)-6-(3-(hydroxymethyl)piperazin-1-yl)pyridine-2-sulfonamide Hydrochloride]"
69.8,6.65,529,5.47,"Cc1ccc(F)cc1-c1nc(NS(=O)(=O)c2cccc(N3CCN[C@H](C)C3)n2)ccc1C(F)(F)F [Example 176, (R)—N-(6-(5-fluoro-2-methylphenyl)-5-(trifluoromethyl)pyridin-2-yl)-6-(3-methylpiperazin-1-yl)pyridine-2-sulfonamide Hydrochloride]"
61.7,8.03,554,5.61,"Cc1ccc(C#N)cc1-c1nc(NS(=O)(=O)c2cccc(N3CC(C)(O)C3)n2)ccc1C(F)(F)F [Example 299, N-(6-(5-cyano-2-methylphenyl)-5-(trifluoromethyl)pyridin-2-yl)-6-(3-hydroxy-3-methylazetidin-1-yl)pyridine-2-sulfonamide]"
58.2,7.94,400,5.60,"Cc1c(-c2nc(NS(=O)(=O)c3cccc(N)n3)ccc2Cl)cccc1C(F)(F)F [Example 34, 6-amino-N-(5-chloro-6-(2-methyl-3-(trifluoromethyl)phenyl)pyridin-2-yl)pyridine-2-sulfonamide]"
92.8,8.38,482,6.43,"CC(C)(C)OC(=O)N1CCN(c2cccc(S(=O)(=O)Nc3ccc(C(F)(F)F)c(-c4ccccc4C4CC4)n3)n2)CC1 [Example 147, tert-butyl 4-(6-(N-(6-(2-cyclopropylphenyl)-5-(trifluoromethyl)pyridin-2-yl)sulfamoyl)pyridin-2-yl)piperazine-1-carboxylate]"
67.2,7.93,448,5.58,"Cc1ccccc1-c1nc(NS(=O)(=O)c2cccc(N3CCC(C)(C(=O)O)CC3)n2)ccc1C(F)(F)F [Example 264, 4-methyl-1-(6-(N-(6-(o-tolyl)-5-(trifluoromethyl)pyridin-2-yl)sulfamoyl)pyridin-2-yl)piperidine-4-carboxylic Acid]"
63.4,8.07,421,5.41,"Cc1ccccc1-c1nc(NS(=O)(=O)c2cccc(N3CCC4(CCC[C@H]4N)CC3)n2)ccc1C(F)(F)F [Example 304, (R)-6-(1-amino-8-azaspiro[4.5]decan-8-yl)-N-(6-(o-tolyl)-5-(trifluoromethyl)pyridin-2-yl)pyridine-2-sulfonamide]"
74.4,7.74,530,5.63,"Cc1ccccc1-c1nc(NS(=O)(=O)c2cccc(N3CCNC4(CC4)C3)n2)ccc1C(F)(F)F [Example 302, 6-(4,7-diazaspiro[2.5]octan-7-yl)-N-(6-(o-tolyl)-5-(trifluoromethyl)pyridin-2-yl)pyridine-2-sulfonamide]"
79.7,6.64,447,5.55,"Cc1ccc(F)cc1-c1nc(NS(=O)(=O)c2cccc(N3CCN[C@@H](C)C3)n2)ccc1C(F)(F)F [Example 177, (S)—N-(6-(5-fluoro-2-methylphenyl)-5-(trifluoromethyl)pyridin-2-yl)-6-(3-methylpiperazin-1-yl)pyridine-2-sulfonamide Hydrochloride]"
80.0,6.33,213,5.47,"Cc1ccccc1-c1nc(NS(=O)(=O)c2cccc(N3CCNCC3)n2)ccc1Cl [Example 195, N-(5-chloro-6-(o-tolyl)pyridin-2-yl)-6-(piperazin-1-yl)pyridine-2-sulfonamide hydrochloride]"
51.9,7.95,,5.68,"Cc1ccc(F)cc1-c1nc(NS(=O)(=O)c2cccc(N3CCCC(C)(C(=O)O)C3)n2)ccc1C(F)(F)F (stereo not shown) [Example 361, 1-(6-{[6-(5-fluoro-2-methylphenyl)-5-(trifluoromethyl)pyridin-2-yl]sulfamoyl}pyridin-2-yl)-3-methylpiperidine-3-carboxylic Acid]"
90.9,8.30,,5.90,"Cc1ccc(F)cc1-c1nc(NS(=O)(=O)c2cccc(N3CCN(C4CC4)CC3)n2)ccc1C(F)(F)F [Example 145, 6-(4-cyclopropylpiperazin-1-yl)-N-(6-(5-fluoro-2-methylphenyl)-5-(trifluoromethyl)pyridin-2-yl)pyridine-2-sulfonamide]"
50.5,6.69,103,5.42,"Cc1ccc(F)cc1-c1nc(NS(=O)(=O)c2ccnc(N3CCNCC3)c2)ccc1C(F)(F)F [Example 326, N-(6-(5-fluoro-2-methylphenyl)-5-(trifluoromethyl)pyridin-2-yl)-2-(piperazin-1-yl)pyridine-4-sulfonamide]"
